Laboratory results taken from the kinase profiling compilation of Christmann-Franck et al. (2016).
Values belong to the molecule of their own block, whether it stands above or below them.

How the values were obtained:
[1] = target: AAK1 (human) (UniProt Q2M2I8); assay: KINOMEscan competition binding; conditions: compound 10.0 µM
[2] = target: ACVR2B (human) (UniProt Q13705); assay: KINOMEscan competition binding; conditions: compound 10.0 µM
[3] = target: CAMK1 (human) (UniProt Q14012); assay: KINOMEscan competition binding; conditions: compound 10.0 µM
[4] = target: CAMK1D (human) (UniProt Q8IU85); assay: KINOMEscan competition binding; conditions: compound 10.0 µM
[5] = target: CAMK2B (human) (UniProt Q13554); assay: KINOMEscan competition binding; conditions: compound 10.0 µM
[6] = target: CLK2 (human) (UniProt P49760); assay: KINOMEscan competition binding; conditions: compound 10.0 µM
[7] = target: CSK (human) (UniProt P41240); assay: KINOMEscan competition binding; conditions: compound 10.0 µM
[8] = target: CSNK2A2 (human) (UniProt P19784); assay: KINOMEscan competition binding; conditions: compound 10.0 µM
[9] = target: DAPK1 (human) (UniProt P53355); assay: KINOMEscan competition binding; conditions: compound 10.0 µM
[10] = target: DAPK2 (human) (UniProt Q9UIK4); assay: KINOMEscan competition binding; conditions: compound 10.0 µM
[11] = target: DAPK3 (human) (UniProt O43293); assay: KINOMEscan competition binding; conditions: compound 10.0 µM
[12] = target: DDR1 (human) (UniProt Q08345); assay: KINOMEscan competition binding; conditions: compound 10.0 µM
[13] = target: EPHA3 (human) (UniProt P29320); assay: KINOMEscan competition binding; conditions: compound 10.0 µM
[14] = target: GAK (human) (UniProt O14976); assay: KINOMEscan competition binding; conditions: compound 10.0 µM
[15] = target: GSK3A (human) (UniProt P49840); assay: KINOMEscan competition binding; conditions: compound 10.0 µM
[16] = target: HIPK1 (human) (UniProt Q86Z02); assay: KINOMEscan competition binding; conditions: compound 10.0 µM
[17] = target: LATS2 (human) (UniProt Q9NRM7); assay: KINOMEscan competition binding; conditions: compound 10.0 µM
[18] = target: MAP2K3 (human) (UniProt P46734); assay: KINOMEscan competition binding; conditions: compound 10.0 µM
[19] = target: MAP3K7 (human) (UniProt O43318); assay: KINOMEscan competition binding; conditions: compound 10.0 µM
[20] = target: MAPK10 (human) (UniProt P53779); assay: KINOMEscan competition binding; conditions: compound 10.0 µM
[21] = target: MAPK8 (human) (UniProt P45983); assay: KINOMEscan competition binding; conditions: compound 10.0 µM
[22] = target: MYLK (human) (UniProt Q15746); assay: KINOMEscan competition binding; conditions: compound 10.0 µM
[23] = target: PAK4 (human) (UniProt O96013); assay: KINOMEscan competition binding; conditions: compound 10.0 µM
[24] = target: PAK6 (human) (UniProt Q9NQU5); assay: KINOMEscan competition binding; conditions: compound 10.0 µM
[25] = target: PAK7 (human) (UniProt Q9P286); assay: KINOMEscan competition binding; conditions: compound 10.0 µM
[26] = target: PHKG2 (human) (UniProt P15735); assay: KINOMEscan competition binding; conditions: compound 10.0 µM
[27] = target: PIM1 (human) (UniProt P11309); assay: KINOMEscan competition binding; conditions: compound 10.0 µM
[28] = target: PIM2 (human) (UniProt Q9P1W9); assay: KINOMEscan competition binding; conditions: compound 10.0 µM
[29] = target: PIM3 (human) (UniProt Q86V86); assay: KINOMEscan competition binding; conditions: compound 10.0 µM
[30] = target: PLK4 (human) (UniProt O00444); assay: KINOMEscan competition binding; conditions: compound 10.0 µM
[31] = target: RIPK4 (human) (UniProt P57078); assay: KINOMEscan competition binding; conditions: compound 10.0 µM
[32] = target: STK16 (human) (UniProt O75716); assay: KINOMEscan competition binding; conditions: compound 10.0 µM
[33] = target: STK17A (human) (UniProt Q9UEE5); assay: KINOMEscan competition binding; conditions: compound 10.0 µM
[34] = target: STK17B (human) (UniProt O94768); assay: KINOMEscan competition binding; conditions: compound 10.0 µM
[35] = target: TAOK1 (human) (UniProt Q7L7X3); assay: KINOMEscan competition binding; conditions: compound 10.0 µM
[36] = target: TAOK3 (human) (UniProt Q9H2K8); assay: KINOMEscan competition binding; conditions: compound 10.0 µM
[37] = target: TGFBR2 (human) (UniProt P37173); assay: KINOMEscan competition binding; conditions: compound 10.0 µM
[38] = target: TTK (human) (UniProt P33981); assay: KINOMEscan competition binding; conditions: compound 10.0 µM
[39] = target: TYK2 JH2 pseudokinase (human) (UniProt P29597); assay: KINOMEscan competition binding; conditions: compound 10.0 µM
[40] = target: PIM1 (human) (UniProt P11309); assay: SelectScreen, TR FRET
[41] = target: PIM2 (human) (UniProt Q9P1W9); assay: SelectScreen, TR FRET
[42] = system: EGFR (human), P00533 [747-751 del / S ins]; assay: KINOMEscan competition binding; conditions: compound 10.0 µM
[43] = system: EGFR (human), P00533 [G719S]; assay: KINOMEscan competition binding; conditions: compound 10.0 µM
[44] = system: EGFR (human), P00533 [P753S; 747-752 del]; assay: KINOMEscan competition binding; conditions: compound 10.0 µM
[45] = target: MAP2K2 (human) (UniProt P36507); assay: KINOMEscan competition binding; conditions: compound 10.0 µM
[46] = target: MAP2K4 (human) (UniProt P45985); assay: KINOMEscan competition binding; conditions: compound 10.0 µM
[47] = target: PIK3C2B (human) (UniProt O00750); assay: KINOMEscan competition binding; conditions: compound 10.0 µM
[48] = target: PIK3CB (human) (UniProt P42338); assay: KINOMEscan competition binding; conditions: compound 10.0 µM
[49] = target: PIK3CD (human) (UniProt O00329); assay: KINOMEscan competition binding; conditions: compound 10.0 µM

Chain of PIM1 (human) (P11309 whole entry, looked up): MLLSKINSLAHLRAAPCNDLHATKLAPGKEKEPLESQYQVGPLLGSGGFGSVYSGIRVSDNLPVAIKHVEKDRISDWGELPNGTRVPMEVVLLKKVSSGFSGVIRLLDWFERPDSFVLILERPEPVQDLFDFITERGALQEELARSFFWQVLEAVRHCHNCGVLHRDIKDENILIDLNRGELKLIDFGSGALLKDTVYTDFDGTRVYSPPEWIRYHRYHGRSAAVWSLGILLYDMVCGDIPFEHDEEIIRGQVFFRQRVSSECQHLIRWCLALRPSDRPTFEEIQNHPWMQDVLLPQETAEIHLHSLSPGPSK
Chain of PIM2 (human) (Q9P1W9 whole entry, looked up): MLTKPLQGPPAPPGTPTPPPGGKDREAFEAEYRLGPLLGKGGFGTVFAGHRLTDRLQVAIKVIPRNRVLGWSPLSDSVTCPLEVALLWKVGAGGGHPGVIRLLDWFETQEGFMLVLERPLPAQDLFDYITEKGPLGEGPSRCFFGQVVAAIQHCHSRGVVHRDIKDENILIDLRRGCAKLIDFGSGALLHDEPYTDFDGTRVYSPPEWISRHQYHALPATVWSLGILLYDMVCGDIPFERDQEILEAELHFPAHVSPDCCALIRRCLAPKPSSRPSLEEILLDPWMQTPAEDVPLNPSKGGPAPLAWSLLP
Chain of CAMK1 (human) (Q14012 whole entry, looked up): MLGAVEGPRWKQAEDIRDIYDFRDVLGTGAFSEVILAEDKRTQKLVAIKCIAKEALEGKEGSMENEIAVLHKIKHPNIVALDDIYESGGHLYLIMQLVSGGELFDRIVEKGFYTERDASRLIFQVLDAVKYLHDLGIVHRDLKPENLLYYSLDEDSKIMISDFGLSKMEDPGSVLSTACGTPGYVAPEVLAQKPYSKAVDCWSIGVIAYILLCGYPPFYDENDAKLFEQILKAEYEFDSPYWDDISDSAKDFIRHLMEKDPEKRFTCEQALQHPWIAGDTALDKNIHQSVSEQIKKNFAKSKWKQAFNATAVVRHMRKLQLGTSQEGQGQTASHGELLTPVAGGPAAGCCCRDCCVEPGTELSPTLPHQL
Chain of DAPK1 (human) (P53355 whole entry, looked up): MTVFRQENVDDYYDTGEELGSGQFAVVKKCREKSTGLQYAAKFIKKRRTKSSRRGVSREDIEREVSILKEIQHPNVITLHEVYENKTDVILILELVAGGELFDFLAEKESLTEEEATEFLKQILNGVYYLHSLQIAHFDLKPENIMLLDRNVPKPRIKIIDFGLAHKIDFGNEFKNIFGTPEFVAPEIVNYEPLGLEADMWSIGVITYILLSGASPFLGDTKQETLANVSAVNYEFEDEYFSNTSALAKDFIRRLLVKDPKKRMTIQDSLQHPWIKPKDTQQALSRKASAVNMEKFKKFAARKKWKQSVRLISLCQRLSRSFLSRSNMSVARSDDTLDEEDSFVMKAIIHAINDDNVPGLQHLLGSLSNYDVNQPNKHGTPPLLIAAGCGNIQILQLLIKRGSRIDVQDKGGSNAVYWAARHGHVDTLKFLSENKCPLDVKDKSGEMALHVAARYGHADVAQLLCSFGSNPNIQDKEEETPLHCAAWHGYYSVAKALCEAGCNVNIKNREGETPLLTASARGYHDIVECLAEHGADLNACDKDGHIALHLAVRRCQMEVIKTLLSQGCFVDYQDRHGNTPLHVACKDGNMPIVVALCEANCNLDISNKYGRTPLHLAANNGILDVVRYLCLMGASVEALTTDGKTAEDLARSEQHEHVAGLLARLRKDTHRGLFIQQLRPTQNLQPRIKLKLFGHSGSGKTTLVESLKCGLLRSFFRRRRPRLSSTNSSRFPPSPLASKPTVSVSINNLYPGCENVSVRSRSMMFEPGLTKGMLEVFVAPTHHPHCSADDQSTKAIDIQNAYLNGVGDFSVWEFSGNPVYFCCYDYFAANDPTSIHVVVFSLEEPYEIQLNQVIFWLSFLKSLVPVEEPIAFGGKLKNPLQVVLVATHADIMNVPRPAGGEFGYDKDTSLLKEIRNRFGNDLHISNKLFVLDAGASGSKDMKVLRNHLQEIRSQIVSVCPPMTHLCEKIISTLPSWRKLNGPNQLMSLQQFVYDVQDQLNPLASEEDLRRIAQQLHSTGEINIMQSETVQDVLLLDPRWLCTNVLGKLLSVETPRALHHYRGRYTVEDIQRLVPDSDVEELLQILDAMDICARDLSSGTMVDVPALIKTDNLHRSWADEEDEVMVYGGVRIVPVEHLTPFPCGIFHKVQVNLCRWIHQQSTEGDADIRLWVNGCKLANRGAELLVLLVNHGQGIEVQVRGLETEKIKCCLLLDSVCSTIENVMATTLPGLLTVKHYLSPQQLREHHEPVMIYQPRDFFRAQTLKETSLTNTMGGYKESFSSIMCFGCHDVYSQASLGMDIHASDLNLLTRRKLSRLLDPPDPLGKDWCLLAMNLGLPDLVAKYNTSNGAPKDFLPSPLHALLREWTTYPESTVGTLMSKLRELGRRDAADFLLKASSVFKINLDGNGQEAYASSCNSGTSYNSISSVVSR
Chain of MAPK10 (human) (P53779 whole entry, looked up): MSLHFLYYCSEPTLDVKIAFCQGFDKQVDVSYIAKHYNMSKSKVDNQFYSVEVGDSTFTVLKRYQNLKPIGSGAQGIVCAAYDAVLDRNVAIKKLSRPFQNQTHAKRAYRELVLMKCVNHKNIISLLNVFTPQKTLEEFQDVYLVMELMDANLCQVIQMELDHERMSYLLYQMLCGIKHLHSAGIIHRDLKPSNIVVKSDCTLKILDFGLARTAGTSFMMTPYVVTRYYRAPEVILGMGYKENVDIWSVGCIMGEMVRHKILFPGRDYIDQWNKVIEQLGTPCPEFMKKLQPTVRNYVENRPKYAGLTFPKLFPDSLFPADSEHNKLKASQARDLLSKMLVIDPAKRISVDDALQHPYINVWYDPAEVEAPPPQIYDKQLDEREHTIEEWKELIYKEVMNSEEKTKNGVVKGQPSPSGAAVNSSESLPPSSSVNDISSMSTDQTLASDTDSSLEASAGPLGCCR
Chain of TAOK3 (human) (Q9H2K8 whole entry, looked up): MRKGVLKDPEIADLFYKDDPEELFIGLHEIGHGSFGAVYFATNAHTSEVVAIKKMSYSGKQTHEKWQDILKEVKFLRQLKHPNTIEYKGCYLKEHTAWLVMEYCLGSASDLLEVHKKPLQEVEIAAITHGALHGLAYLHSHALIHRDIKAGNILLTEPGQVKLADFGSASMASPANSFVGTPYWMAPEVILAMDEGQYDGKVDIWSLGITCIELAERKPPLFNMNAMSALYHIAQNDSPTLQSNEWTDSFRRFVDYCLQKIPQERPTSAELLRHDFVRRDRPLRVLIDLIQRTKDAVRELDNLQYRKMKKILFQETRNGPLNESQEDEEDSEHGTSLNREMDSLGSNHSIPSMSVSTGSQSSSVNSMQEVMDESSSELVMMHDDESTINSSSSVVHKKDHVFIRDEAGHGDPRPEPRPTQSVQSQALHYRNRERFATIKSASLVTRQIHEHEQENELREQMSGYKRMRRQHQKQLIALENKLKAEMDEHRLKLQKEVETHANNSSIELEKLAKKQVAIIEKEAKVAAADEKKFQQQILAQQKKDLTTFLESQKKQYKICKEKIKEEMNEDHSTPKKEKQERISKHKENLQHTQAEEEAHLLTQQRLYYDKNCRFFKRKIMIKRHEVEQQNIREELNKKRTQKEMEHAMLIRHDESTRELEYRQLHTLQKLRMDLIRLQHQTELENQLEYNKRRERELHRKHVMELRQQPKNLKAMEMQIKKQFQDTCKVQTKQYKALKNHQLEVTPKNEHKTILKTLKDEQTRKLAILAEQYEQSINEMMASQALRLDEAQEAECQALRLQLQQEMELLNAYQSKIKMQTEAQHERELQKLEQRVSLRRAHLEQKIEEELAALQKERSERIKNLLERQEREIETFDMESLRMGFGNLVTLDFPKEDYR
Chain of PLK4 (human) (O00444 whole entry, looked up): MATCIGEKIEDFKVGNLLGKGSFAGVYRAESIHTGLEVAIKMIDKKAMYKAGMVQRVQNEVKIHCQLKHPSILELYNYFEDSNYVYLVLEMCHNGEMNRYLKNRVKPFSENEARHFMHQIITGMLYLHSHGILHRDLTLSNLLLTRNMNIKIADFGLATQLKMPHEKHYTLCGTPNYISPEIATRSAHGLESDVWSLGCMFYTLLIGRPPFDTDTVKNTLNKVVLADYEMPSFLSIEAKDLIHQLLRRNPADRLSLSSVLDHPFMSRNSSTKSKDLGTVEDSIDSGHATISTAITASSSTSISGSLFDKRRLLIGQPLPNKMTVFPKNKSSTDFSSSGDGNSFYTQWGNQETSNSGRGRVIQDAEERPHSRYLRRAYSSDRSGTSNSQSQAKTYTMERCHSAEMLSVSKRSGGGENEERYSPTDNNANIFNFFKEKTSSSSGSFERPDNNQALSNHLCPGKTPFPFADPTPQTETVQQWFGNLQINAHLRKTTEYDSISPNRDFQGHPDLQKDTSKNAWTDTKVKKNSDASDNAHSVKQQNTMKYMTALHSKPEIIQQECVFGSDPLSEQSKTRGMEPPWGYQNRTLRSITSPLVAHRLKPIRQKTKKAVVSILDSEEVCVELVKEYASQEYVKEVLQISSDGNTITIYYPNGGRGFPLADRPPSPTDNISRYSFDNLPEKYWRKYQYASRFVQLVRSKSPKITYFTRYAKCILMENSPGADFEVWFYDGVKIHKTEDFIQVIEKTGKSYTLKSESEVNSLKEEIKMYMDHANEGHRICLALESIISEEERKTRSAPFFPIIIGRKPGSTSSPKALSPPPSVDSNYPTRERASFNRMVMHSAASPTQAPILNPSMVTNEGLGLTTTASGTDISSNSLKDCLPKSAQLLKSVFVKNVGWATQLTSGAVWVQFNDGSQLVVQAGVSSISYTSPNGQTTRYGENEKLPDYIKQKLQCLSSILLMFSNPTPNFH

- kinase still bound, per cent of control [1]: 26%
- kinase still bound, per cent of control [2]: 24%
- kinase still bound, per cent of control [3]: 20%
- kinase still bound, per cent of control [4]: 29%
- kinase still bound, per cent of control [5]: 29%
- kinase still bound, per cent of control [6]: 21%
- kinase still bound, per cent of control [7]: 30%
- kinase still bound, per cent of control [8]: 34%
- kinase still bound, per cent of control [9]: 32%
- kinase still bound, per cent of control [10]: 7.1%
- kinase still bound, per cent of control [11]: 15%
- kinase still bound, per cent of control [12]: 22%
- kinase still bound, per cent of control [13]: 32%
- kinase still bound, per cent of control [14]: 28%
- kinase still bound, per cent of control [15]: 32%
- kinase still bound, per cent of control [16]: 0.15%
- kinase still bound, per cent of control [17]: 31%
- kinase still bound, per cent of control [18]: 20%
- kinase still bound, per cent of control [19]: 13%
- kinase still bound, per cent of control [20]: 16%
- kinase still bound, per cent of control [21]: 14%
- kinase still bound, per cent of control [22]: 21%
- kinase still bound, per cent of control [23]: 29%
- kinase still bound, per cent of control [24]: 30%
- kinase still bound, per cent of control [25]: 34%
- kinase still bound, per cent of control [26]: 29%
- kinase still bound, per cent of control [27]: 1.8%
- kinase still bound, per cent of control [28]: 0.5%
- kinase still bound, per cent of control [29]: 1.9%
- kinase still bound, per cent of control [30]: 1%
- kinase still bound, per cent of control [31]: 1%
- kinase still bound, per cent of control [32]: 22%
- kinase still bound, per cent of control [33]: 2.4%
- kinase still bound, per cent of control [34]: 0.6%
- kinase still bound, per cent of control [35]: 5.8%
- kinase still bound, per cent of control [36]: 5.6%
- kinase still bound, per cent of control [37]: 11%
- kinase still bound, per cent of control [38]: 18%
- kinase still bound, per cent of control [39]: 2.6%
- IC50 [40]: 5050 nM
- IC50 [41]: 662 nM
SMILES: Cc1cn(-c2cc(NC(=O)c3cccc4cc(-c5ccc(/C=C6\SC(=N)NC6=O)o5)ccc34)cc(C(F)(F)F)c2)cn1

- kinase still bound, per cent of control [42]: 17%
- kinase still bound, per cent of control [43]: 6.9%
- kinase still bound, per cent of control [44]: 16%
- kinase still bound, per cent of control [45]: 17%
- kinase still bound, per cent of control [46]: 12%
- kinase still bound, per cent of control [47]: 0.6%
- kinase still bound, per cent of control [48]: 0%
- kinase still bound, per cent of control [49]: 0%
SMILES: O=C1NC(=O)C(=Cc2ccc(-c3ccc(S(=O)(=O)N4CCNCC4)cc3)o2)C(=O)N1
